Test: xn = mol fraction of the nth substance listed
Conditions: 100 kPa

CCCC[P+](C)(CCCC)CCCC.COS(=O)(=O)[O-] + CN(C)C=O
Conditions	speed of sound [m/s]	viscosity [mPa·s]
293.15 K, x1 = 0.0474	1486.7	1.774
293.15 K, x1 = 0.0765	1492.6	2.681
293.15 K, x1 = 0.1106	1502.8	3.495
293.15 K, x1 = 0.1508	1513.1	5.02
293.15 K, x1 = 0.1991	1518.1	6.59
293.15 K, x1 = 0.2582	1529.5	12.72
293.15 K, x1 = 0.5542	1551.2	145.3
293.15 K, x1 = 0.6717	1554.1	246
293.15 K, x1 = 0.7768	1557.2	368
293.15 K, x1 = 0.8253	1559.8	439
293.15 K, x1 = 0.8837	1560.2	532
293.15 K, x1 = 1	1563.7	729
298.15 K, x1 = 0.0474	1472.5	1.934
298.15 K, x1 = 0.0765	1482.5	3.021
298.15 K, x1 = 0.1106	1491.5	4.201
298.15 K, x1 = 0.1508	1499.4	5.71
298.15 K, x1 = 0.1991	1506.2	9.12
298.15 K, x1 = 0.2582	1511.1	17.12
298.15 K, x1 = 0.3321	1523.3	24.22
298.15 K, x1 = 0.4272	1529.1	41
298.15 K, x1 = 0.5542	1535.5	80.9
298.15 K, x1 = 0.6717	1538.1	164.4
298.15 K, x1 = 0.7768	1540.5	267
298.15 K, x1 = 0.8253	1542.3	315
298.15 K, x1 = 0.8837	1544	389
298.15 K, x1 = 0.9362	1545	445
303.15 K, x1 = 0.0474	1453.5	1.154
303.15 K, x1 = 0.1106	1471.3	3.824
303.15 K, x1 = 0.1508	1479.2	4.91
303.15 K, x1 = 0.1991	1487.8	5.73
303.15 K, x1 = 0.2582	1497.1	11.88
303.15 K, x1 = 0.3321	1503.3	15.34
303.15 K, x1 = 0.4272	1510.1	31.14
303.15 K, x1 = 0.5542	1519.2	44.8
303.15 K, x1 = 0.6717	1520.1	115.1
303.15 K, x1 = 0.7768	1523.5	192.4
303.15 K, x1 = 0.8253	1525.4	233
303.15 K, x1 = 0.9362	1528.2	325
303.15 K, x1 = 1	1529.6	381
308.15 K, x1 = 0.0474	1434.9	2.009
308.15 K, x1 = 0.0765	1444.1	2.042
308.15 K, x1 = 0.1106	1452.2	3.858
308.15 K, x1 = 0.1508	1461.5	4.52
308.15 K, x1 = 0.1991	1470.1	5.96
308.15 K, x1 = 0.2582	1479.6	10.08
308.15 K, x1 = 0.3321	1485.8	13.81
308.15 K, x1 = 0.4272	1495.1	26.52
308.15 K, x1 = 0.5542	1501.1	37.9
308.15 K, x1 = 0.7768	1507	140.5
308.15 K, x1 = 0.8253	1509.1	170.5
308.15 K, x1 = 0.8837	1510.8	201
308.15 K, x1 = 0.9362	1513.8	242
308.15 K, x1 = 1	1514.3	286
313.15 K, x1 = 0.0765	1426.1	2.915
313.15 K, x1 = 0.1106	1433.2	3.012
313.15 K, x1 = 0.1508	1444.1	4.451
313.15 K, x1 = 0.1991	1452.6	5.02
313.15 K, x1 = 0.2582	1460.2	8.85
313.15 K, x1 = 0.3321	1469.2	13.52
313.15 K, x1 = 0.4272	1479.1	–
313.15 K, x1 = 0.5542	1487.8	32.59
313.15 K, x1 = 0.6717	1489.8	66.5
313.15 K, x1 = 0.7768	1491.1	107.4
313.15 K, x1 = 0.8253	1494.8	127.5
313.15 K, x1 = 0.8837	1496.5	152.2
313.15 K, x1 = 0.9362	1497.5	182.7
318.15 K, x1 = 0.0474	1399.2	0.955
318.15 K, x1 = 0.0765	1409.7	1.855
318.15 K, x1 = 0.1106	1416.3	2.982
318.15 K, x1 = 0.1508	1425.5	4.147
318.15 K, x1 = 0.1991	1434.9	6.04
318.15 K, x1 = 0.4272	1463.7	20.74
318.15 K, x1 = 0.5542	1471.8	28.42
318.15 K, x1 = 0.6717	1475.1	–
318.15 K, x1 = 0.7768	1478.2	81.3
318.15 K, x1 = 0.8253	1480.1	106.5
318.15 K, x1 = 0.8837	1482.6	127.4
318.15 K, x1 = 0.9362	1484.1	149.6
318.15 K, x1 = 1	1485.7	169.1
323.15 K, x1 = 0.0474	1382.2	1.897
323.15 K, x1 = 0.0765	1392.5	2.214
323.15 K, x1 = 0.1106	1398.2	2.469
323.15 K, x1 = 0.1991	1417.7	4.5
323.15 K, x1 = 0.2582	1425.1	9.48
323.15 K, x1 = 0.3321	1436.2	14.54
323.15 K, x1 = 0.4272	1445.5	19.56
323.15 K, x1 = 0.5542	1456	25.19
323.15 K, x1 = 0.6717	1461.6	43.1
323.15 K, x1 = 0.7768	1464.9	–
323.15 K, x1 = 0.8253	1466.6	100.4
323.15 K, x1 = 0.9362	1471.7	123
323.15 K, x1 = 1	1472	133.4
